Source: US11149036B2, “3-(1H-pyrazol-4-yl)pyridine allosteric modulators of the M4 muscarinic acetylcholine receptor” (Merck Sharp & Dohme Corp., priority 2017, dated 2021)

Molecular target: T1, human M4 muscarinic acetylcholine receptor (Homo sapiens, UniProt P08173)
T1 construct: expressed in transfected cells; host or cells: CHO-K1
T1 sequence (P08173 1-479): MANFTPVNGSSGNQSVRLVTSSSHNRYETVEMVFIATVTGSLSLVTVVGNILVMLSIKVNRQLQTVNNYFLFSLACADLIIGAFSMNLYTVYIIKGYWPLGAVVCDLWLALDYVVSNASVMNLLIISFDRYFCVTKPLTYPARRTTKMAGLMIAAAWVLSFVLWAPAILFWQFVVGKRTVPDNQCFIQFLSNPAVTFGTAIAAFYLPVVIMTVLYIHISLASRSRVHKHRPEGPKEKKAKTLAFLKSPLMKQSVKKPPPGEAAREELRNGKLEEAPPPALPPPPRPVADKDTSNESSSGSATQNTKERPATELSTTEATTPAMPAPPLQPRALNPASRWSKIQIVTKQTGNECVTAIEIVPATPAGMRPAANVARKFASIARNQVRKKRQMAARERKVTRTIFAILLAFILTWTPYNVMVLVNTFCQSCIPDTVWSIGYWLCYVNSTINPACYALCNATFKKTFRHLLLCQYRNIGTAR
Assay: human FLIPR-based M4 PAM assay (CHO-K1 cells with human M4 receptor and Gaqi5, calcium dye fluorescence)
Type: cell-based
Details: inflection point (IP) of dose response curve, acetylcholine added at 20% of maximum response, read-out: M4 FLIPPR Hu IP
Method: (§1) In a typical experiment the M4 muscarinic acetylcholine receptor modulating activity of the compounds of the present invention was determined in accordance with the following experimental method. CHO-K1 cells stably transfected with human M4 receptor and chimeric G-protein Gaqi5 (Coward P, et al., Analytical Biochemistry, 270:242-248 (1999)) are thawed from liquid N2 storage, resuspended in growth medium, plated in black, clear bottom 384 well plates, and incubated 16-20 hours at 37° C., 5% CO2. On the day of assay, growth medium is removed, the cells are washed 2 times with wash buffer, and cells are incubated in dye loading buffer at 37° C., 5% CO2 for ˜1 hour. Following dye loading the cell plates are placed in a FLIPR Tetra instrument and while monitoring dye fluorescence (excitation 470-495 […]), 10 uL of test substance at increasing concentrations is added, and fluorescence values are recorded for 4 min. Next, 10 uL of acetylcholine is added (final concentration calculated so as to achieve 20% of the maximum acetycholine response), and the fluorescence reading is continued for 3.5 min. In some cases, a third addition of acetylcholine (final concentration calculated to achieve 70% of the maximal acetylcholine response) is performed. The resulting dose response curves are fit to a 4 parameter logistic equation and the final result is determined as the inflection point (IP) of the curve
as §1, with “CHO-K1” for “In a typical experiment the M4 muscarinic acetylcholine receptor modulating activity of the compounds of the present invention was determined in accordance with the following experimental method. CHO-K1”, “Gaqi5” for “Gaqi5 (Coward P, et al., Analytical Biochemistry, 270:242-248 (1999))”, “performed.” for “performed. The resulting dose response curves are fit to a 4 parameter logistic equation and the final result is determined as the inflection point (IP) of the curve”

EC50 [nM] | SMILES
32 | N#Cc1ccc(-c2cnn(CC3(F)CCCC3)c2)c(-c2ccn3cnnc3c2)n1 [Example 42, 6-([1,2,4]triazolo[4,3-a]pyridin-7-yl)-5-(1-((1-fluorocyclopentyl)methyl)-1H-pyrazol-4-yl)picolinonitrile]
26 | CC1(Cn2cc(-c3ccc(C#N)nc3-c3ccc4cc(Cl)nnc4c3)cn2)CCCC1 [Example 127, 6-(3-chlorocinnolin-7-yl)-5-(1-((1-methylcyclopentyl)methyl)-1H-pyrazol-4-yl)picolinonitrile]
37 | Cc1nc2cc(-c3nc(C#N)ccc3-c3cnn(CC4(F)CCCC4)c3)ccn2n1 [Example 61, 5-(1-((1-fluorocyclopentyl)methyl)-1H-pyrazol-4-yl)-6-(2-methyl-[1,2,4]triazolo[1,5-a]pyridin-7-yl)picolinonitrile]
29 | N#Cc1ccc(-c2cnn(CC3(F)CCCC3)c2)c(-c2ccn3ncnc3c2)n1 [Example 43, 6-([1,2,4]triazolo[1,5-a]pyridin-7-yl)-5-(1-((1-fluorocyclopentyl)methyl)-1H-pyrazol-4-yl)picolinonitrile]
68 | Cc1nc2cc(-c3ncc(F)cc3-c3cnn(CC4(F)CCCC4)c3)ccn2c1C [Example 97, 7-(5-fluoro-3-(1-((1-fluorocyclopentyl)methyl)-1H-pyrazol-4-yl)pyridin-2-yl)-2,3-dimethylimidazo[1,2-a] pyridine]
28 | CCc1nc2cc(-c3nc(C#N)ccc3-c3cnn(CC4(F)CCCC4)c3)ccn2n1 [Example 65, 6-(2-ethyl-[1,2,4]triazolo[1,5-a]pyridin-7-yl)-5-(1-((1-fluorocyclopentyl)methyl)-1H-pyrazol-4-yl)picolinonitrile]
35 | Cc1cn2ccc(-c3ncc(F)cc3-c3cnn(CC4(F)CCCC4)c3)cc2n1 [Example 96, 7-(5-fluoro-3-(1-((1-fluorocyclopentyl)methyl)-1H-pyrazol-4-yl)pyridin-2-yl)-2-methylimidazo[1,2-a] pyridine]
110 | Cc1nc2ccc(-c3nc(C#N)ccc3-c3cnn(CC4(F)CCCC4)c3)cn2n1 [Example 60, 5-(1-((1-fluorocyclopentyl)methyl)-1H-pyrazol-4-yl)-6-(2-methyl-[1,2,4]triazolo[1,5-a]pyridin-6-yl)picolinonitrile]
78 | CC1(Cn2cc(-c3ccc(C#N)nc3-c3ccc4ccc(Cl)nc4c3)cn2)CCCC1 [Example 126, 6-(2-chloro-quinolin-7-yl)-5-(1-((1-methylcyclo-pentyl)methyl)-1H-pyrazol-4-yl)picolinonitrile]
20 | CC1(Cn2cc(-c3ccc(C#N)nc3-c3ccn4cc(CO)nc4c3)cn2)CCCC1 [Example 82, 6-(2-(hydroxymethyl)imidazo [1,2-a]pyridin-7-yl)-5-(1-((1-methylcyclopentyl)methyl)-1H-pyrazol-4-yl)picolinonitrile]
89 | N#Cc1ccc(-c2cnn(CC3(F)CCCC3)c2)c(-c2ccn3nc(CO)nc3c2)n1 [Example 66, 5-(1-((1-fluorocyclopentyl)methyl)-1H-pyrazol-4-yl)-6-(2-(hydroxymethyl)-[1,2,4]triazolo[1,5-a]pyridin-7-yl)picolinonitrile]

Second part, the compound before the results:

SMILES | EC50 [nM]
COc1cc2ccc(-c3nc(C)ccc3-c3cnn(C(F)C4CCCC4)c3F)cc2nn1 (stereo not shown) [Example 36, 7-(3-(1-(cyclopentylfluoromethyl)-5-fluoro-1H-pyrazol-4-yl)-6-methylpyridin-2-yl)-3-methoxycinnoline] | 38
Cn1cnc2cc(-c3nc(C#N)ccc3-c3cnn(CC4C[C@H](F)[C@@H](F)C4)c3)ccc21 [Example 72, 5-(1-(((3S,4S)-3,4-difluorocyclopentyl)methyl)-1H-pyrazol-4-yl)-6-(1-methyl-1H-benzo[d]imidazol-5-yl)picolinonitrile] | 41
Cc1cn2ccc(-c3nc(C#N)c(Cl)cc3-c3cnn(CC4(C)CCCC4)c3)cc2n1 [Example 162, 3-chloro-5-(1-((1-methylcyclopentyl)methyl)-1H-pyrazol-4-yl)-6-(2-methylimidazo[1,2-a]pyridin-7-yl)picolinonitrile] | 40
N#Cc1ccc(-c2cnn(C[C@H]3CC[C@H](F)C3)c2)c(-c2ccc3cccnc3c2)n1 [Example 68, 5-(1-(((1S,3S)-3-fluorocyclopentyl)methyl)-1H-pyrazol-4-yl)-6-(quinolin-7-yl)picolinonitrile] | 38
Cc1cc(-c2cnn(CC3(F)CCCC3)c2)c(-c2cnc3c(c2)ncn3C)nc1C#N [Example 142, 5-(1-((1-fluorocyclopentyl)methyl)-1H-pyrazol-4-yl)-3-methyl-6-(3-methyl-3H-imidazo[4,5-b]pyridin-6-yl)picolinonitrile] | 104
Cc1ccc(-c2cnn(CC3(F)CCCC3)c2F)c(-c2cnc3c(c2)ncn3C)n1 [Example 23, 6-(3-(5-fluoro-1-((1-fluorocyclopentyl)methyl)-1H-pyrazol-4-yl)-6-methylpyridin-2-yl)-3-methyl-3H-imidazo[4,5-b]pyridine] | 121
Cc1ccc(-c2cnn(CC3(F)CCCC3)c2F)c(-c2ccc3c(c2)ncn3C)n1 [Example 24] | 70
Cc1nc(-c2cnc3c(c2)ncn3C)c(-c2cnn(CC3(C)CCCC3)c2)cc1C#N [Example 106, 2-methyl-6-(3-methyl-3H-imidazo[4,5-b]pyridin-6-yl)-5-(1-((1-methylcyclopentyl)methyl)-1H-pyrazol-4-yl)nicotinonitrile] | 82
O=C1c2cc(-c3ncc(F)cc3-c3cnn(CC4(F)CCCC4)c3)ccc2CN1C1CC1 [Example 101, 2-cyclopropyl-6-(5-fluoro-3-(1-((1-fluorocyclopentyl)methyl)-1H-pyrazol-4-yl)pyridin-2-yl) isoindolin-1-one] | 69
N#Cc1ccc(-c2cnn(CC3C[C@@H](F)[C@H](F)C3)c2)c(-c2ccc3cccnc3c2)n1 [Example 84, 5-(1-(((3R,4R)-3,4-difluorocyclopentyl)methyl)-1H-pyrazol-4-yl)-6-(quinolin-7-yl)picolinonitrile] | 33
COc1cc2ccc(-c3nc(C#N)ccc3-c3cnn(C[C@H]4CC[C@H](F)C4)c3)cc2nn1 [Example 67, 5-(1-(((1S,3S)-3-fluorocyclopentyl)methyl)-1H-pyrazol-4-yl)-6-(3-methoxycinnolin-7-yl)picolinonitrile] | 64
O=C1c2cc(-c3ncccc3-c3cnn(CC4(F)CCCC4)c3)ccc2CN1CC1CCC1 [Example 140, 2-(cyclobutylmethyl)-6-(3-(1-((1-fluorocyclopentyl)methyl)-1H-pyrazol-4-yl)pyridin-2-yl)isoindolin-1-one] | 68
Cc1cc(-c2cnn(CC3(F)CCCC3)c2)c(-c2cnc3c(c2)ncn3C)nc1Cl [Example 117, 6-(6-chloro-3-(1-((1-fluorocyclopentyl)methyl)-1H-pyrazol-4-yl)-5-methylpyridin-2-yl)-3-methyl-3H-imidazo[4,5-b]pyridine] | 45
Cc1nc2cc(-c3ncc(F)cc3-c3cnn(CC4(F)CCCC4)c3)ccc2n1C [Example 99, 5-(5-fluoro-3-(1-((1-fluorocyclopentyl)methyl)-1H-pyrazol-4-yl)pyridin-2-yl)-1,2-dimethyl-1H-benzo[d]imidazole] | 83
N#Cc1ccc(-c2cnn(CC3CCCC3)c2)c(-c2ccc3ccnn3c2)n1 [Example 38, 5-(1-(cyclopentylmethyl)-1H-pyrazol-4-yl)-6-(pyrazolo[1,5-a]pyridin-6-yl)picolinonitrile] | 13
Cc1nc2cc(-c3ncc(F)cc3-c3cnn(CC4C[C@@H](F)[C@H](F)C4)c3)ccc2n1C [Example 102] | 232
Cn1cnc2cc(-c3nc(C#N)ccc3-c3cnn(C[C@@H]4CC[C@@H](F)C4)c3)ccc21 [Example 70, 5-(1-(((1R,3R)-3-fluorocyclopentyl)methyl)-1H-pyrazol-4-yl)-6-(1-methyl-1H-benzo[d]imidazol-5-yl)picolinonitrile] | 49
